Test results reported in patent US20260234107A1, “TRYPTAMINES AND METHODS OF TREATING MOOD DISORDERS” (priority 2022, published 2026).
pEC50, pKi: −log10 of the molar value.

Assays:
[1] = Plasma pharmacokinetics in rats after intravenous administration; conditions: for AUC(0-t) / C0 / half-life: male, Sprague Dawley, rat, plasma, iv, 1 mg/kg
[2] = tested on: monoamine oxidase A and B (MAO-A and MAO-B); assay: Stability in the presence of monoamine oxidases (human liver mitochondria preparation); design: half-life / microsomal CLint: dose or concentration left out as unconfirmed; conditions: for stability in the presence of MAO (in words): human liver mitochondria preparation; for Remaining (t = 60 min) / half-life / microsomal CLint: human liver mitochondria; for half-life / microsomal CLint: human, pH 7.4
Description: Liver Mitochondria Incubations. Human liver mitochondria (Xenotech H0610.M) were used.

rat synaptosomes = assay: Serotonin (5-HT) release from rat synaptosomes; type: biochemical, Male Sprague-Dawley rats; conditions: for pEC50: rat synaptosomes preloaded with [3H]5-HT; for % Release @ Max Dose (10 μM) / 5-HT release potency/efficacy compared with analog (in words): rat synaptosomes
Outline: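 Synaptosomes from male Sprague-Dawley rat brain (minus cerebellum, striatum) preloaded 2 h at 25° C with 5 nM [^3H]5-HT, with GBR12935, nomifensine and reserpine blocking DAT, NET and VMAT2. Exposed 10 min to compound in KPB with BSA, then filtered; release taken as loss of retained radioactivity.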

5-HT2A [3] = biological target: T1, 5-HT2A (Homo sapiens, UniProt P28223); assay: 5-HT2A receptor radioligand binding ([3H]ketanserin)
T1 sequence (P28223 whole entry): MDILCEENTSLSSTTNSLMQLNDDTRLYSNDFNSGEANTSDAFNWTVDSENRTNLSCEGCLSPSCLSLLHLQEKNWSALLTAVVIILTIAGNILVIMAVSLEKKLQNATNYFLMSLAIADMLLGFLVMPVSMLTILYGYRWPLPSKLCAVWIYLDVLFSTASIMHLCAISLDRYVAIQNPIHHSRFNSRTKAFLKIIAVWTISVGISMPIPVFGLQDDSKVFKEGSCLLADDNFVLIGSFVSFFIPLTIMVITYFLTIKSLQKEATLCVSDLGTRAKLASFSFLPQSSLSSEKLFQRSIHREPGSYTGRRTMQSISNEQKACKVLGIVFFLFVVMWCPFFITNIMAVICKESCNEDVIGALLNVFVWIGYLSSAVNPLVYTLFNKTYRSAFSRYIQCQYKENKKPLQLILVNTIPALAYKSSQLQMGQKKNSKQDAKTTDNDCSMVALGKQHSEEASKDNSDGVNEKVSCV
Description: The binding affinities of disclosed compounds at the ketanserin binding site of the 5-HT2A receptor were determined in radioligand binding experiments.
Method. Affinity of the test compounds for the 5-HT2A receptor was determined in radioligand binding experiments with [^3H]ketanserin by WuXi AppTec (Hong Kong) Limited, using methods adapted from the literature and under conditions described in Table 4.

5-HT1A = biological target: T2, 5-HT1A (Homo sapiens, UniProt P08908); assay: FLIPR Ca2+ flux agonist assay at 5-HT1A; type: cell-based; conditions: for 5-HT1A % Act @ Max Dose: Ca2+ flux, CHO cells
T2 construct: host or cells: CHO cells
T2 sequence (P08908 1-422): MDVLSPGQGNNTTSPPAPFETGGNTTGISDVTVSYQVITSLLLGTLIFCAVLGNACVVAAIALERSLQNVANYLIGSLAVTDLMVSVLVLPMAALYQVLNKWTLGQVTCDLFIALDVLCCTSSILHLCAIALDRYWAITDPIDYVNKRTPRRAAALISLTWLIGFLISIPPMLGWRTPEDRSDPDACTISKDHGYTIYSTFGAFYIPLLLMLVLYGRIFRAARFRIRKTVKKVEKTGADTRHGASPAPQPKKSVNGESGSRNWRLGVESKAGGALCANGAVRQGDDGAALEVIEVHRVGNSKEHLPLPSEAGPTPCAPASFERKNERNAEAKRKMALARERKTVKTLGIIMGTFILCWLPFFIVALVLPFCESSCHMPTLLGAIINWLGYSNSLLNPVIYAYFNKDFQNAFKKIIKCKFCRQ

5-HT2A [4] = biological target: T1, 5-HT2A; assay: FLIPR Ca2+ flux agonist assay at 5-HT2A; type: cell-based; design: host or cells: HEK293; conditions: for 5-HT2A % Act @ Max Dose: Ca2+ flux, HEK293, max dose
[5] = Stability in rat brain homogenate; type: in vitro ADME, male Sprague Dawley rats; conditions: rat brain homogenate, 1 μM, 37° C.; for half-life at 1 µM: male, Sprague Dawley
[6] = Metabolic stability in human liver microsomes (HLM); design: microsomal CLint / half-life: dose or concentration left out as unconfirmed; conditions: for half-life / microsomal CLint: both, human, pooled human liver microsomes, pH 7.4
[7] = human liver mitochondria 0.30 mg protein/mL, 37° C.

Compound | AUC(0-t) [1] [ng·h/mL] | C0 [1] [ng/mL] | half-life [1] [min] | stability in the presence of MAO (in words) [2] | Remaining (t = 60 min) [2] [%] | pEC50 (rat synaptosomes) | % Release @ Max Dose (10 μM) (rat synaptosomes) [%] | pKi (5-HT2A [3]) | pEC50 (5-HT1A) | 5-HT1A % Act @ Max Dose (5-HT1A) [%] | pEC50 (5-HT2A [4]) | 5-HT2A % Act @ Max Dose (5-HT2A [4]) [%] | % Compound Remaining (after 120 min) [5] [%] | half-life [2] [min] | microsomal CLint [2] [µL/min/mg] | 5-HT release potency/efficacy compared with analog (in words) (rat synaptosomes) | half-life at 1 µM [5] [min] | half-life [6] [min] | microsomal CLint [6] [µL/min/mg] | further results
CN(C)CCc1c[nH]c2ccc(F)cc12 [Compound 5-F-DMT, reference compound] | 35.5 | 338 | 4.8 | rapidly metabolized by MAO | 0.9 | 7.39 | 81.44 | 6.74 | 5.24 | 72.9 | 8.16 | 94.7 | 0.0 | – | – | – | – | – | – | plasma half-life (in words) ([1]; rats, IV 1 mg/kg): very short half-lives; CLint(MAO) [2, 7]: 266 µL/min/mg; t1/2 [2, 7]: 8.7 min; t1/2 [5]: 2.7 min; t1/2 ([6]; HLM 0.50 mg protein/mL, NADPH, 37° C., 60 minutes): 4.6 min
CCNCCc1c[nH]c2ccc(F)c(O)c12 [Compound 28, 3-(2-(ethylamino)ethyl)-5-fluoro-1H-indol-4-ol] | 86.7 | 249 | 27.6 | intermediate stability | 46.4 | 6.15 | 73.6 | 6.50 | 5.04 | 60.29 | 7.98 | 92.60 | 0.4 | 56.5 | 40.9 | significantly more potent and efficacious than their non-fluorinated analogs | 15.4 | 42.3 | 32.8 | –
CC(C)NCCc1c[nH]c2ccc(F)c(O)c12 [Compound 35, 5-fluoro-3-(2-(isopropylamino)ethyl)-1H-indol-4-ol] | 126 | 348 | 26.4 | intermediate stability | 22.8 | 5.16 | 53.2 | 6.35 | 4.03 | 48.74 | 7.34 | 94.57 | 16.4 | 29 | 79.6 | significantly more potent and efficacious than their non-fluorinated analogs | 45.6 | 45.7 | 30.3 | –
